Experimental data taken from ChEMBL document CHEMBL3864144, “Cochlearoids F-K: Phenolic meroterpenoids from the fungus Ganoderma cochlear and their renoprotective activity” (Bioorg Med Chem Lett, 2016).
Calls of active or inactive are those of the source. No cut-off for these calls is given here.

Columns and labels:
[1] = system: HKC8; test: Renoprotective activity in human HKC8 cells assessed as inhibition of TGF-beta1-induced fibronectin production preincubated for 1 hr followed by TGF-beta1 induction measured after 24 hrs by solid-phase sandwich ELISA; assay type: functional, cell-based
[2] = Cytotoxicity against human HKC8 cells assessed as decrease in cell viability at 20 uM after 24 hrs by MTT assay; assay type: toxicity, cell-based; conditions: hkc8, 24 h
[3] = Cytotoxicity against human HKC8 cells assessed as decrease in cell viability at 10 uM after 24 hrs by MTT assay; assay type: toxicity, cell-based; conditions: hkc8, 24 h
[4] = Cytotoxicity against human HKC8 cells assessed as decrease in cell viability at 5 uM after 24 hrs by MTT assay; assay type: toxicity, cell-based; conditions: hkc8, 24 h
[5] = Cytotoxicity against human HKC8 cells assessed as decrease in cell viability at 2.5 uM after 24 hrs by MTT assay; assay type: toxicity, cell-based; conditions: hkc8, 24 h

| Compound | inhibition [1] | Activity [2] | Activity [3] | Activity [4] | Activity [5] |
| --- | --- | --- | --- | --- | --- |
| CC(C)=CCC/C(C)=C/CC/C(=C/Cc1cc(O)cc2c1oc(=O)c1c(O)ccc(O)c12)CO | Active | Toxic | Non-Toxic | – | – |
| CC(C)=CCC/C(C)=C/CC/C(=C/Cc1cc(O)cc2c(C(=O)c3cc(O)ccc3O)c(CC/C=C(\C)CCC=C(C)C)c(=O)oc12)CO | Active | Toxic | – | Non-Toxic | – |
| CC(C)=CCC/C(C)=C/CC/C(=C/Cc1cc2oc(=O)c(CC/C=C(\C)CCC=C(C)C)c(C(=O)c3cc(O)ccc3O)c2cc1O)CO | Active | Toxic | – | Non-Toxic | – |
| CC(C)=CCC/C(=C/Cc1cc2oc(=O)c3c(O)ccc(O)c3c2cc1O)C(=O)O | Active | Toxic | – | Non-Toxic | – |
| CC(C)=CCC/C(C)=C/CC/C(=C/Cc1cc(O)cc2c1oc(=O)c1c(O)ccc(O)c12)C(=O)O | Active | Toxic | – | – | Non-Toxic |
| CC(C)=CCC/C(C)=C/CC/C(=C/Cc1cc2oc(=O)c3c(O)ccc(O)c3c2cc1O)CO | – | Toxic | – | – | Non-Toxic |
